Source: PMC12434521, “Characterization of Next-Generation Inhibitors for the Inward-Rectifier Potassium Channel Kir2.1: Discovery of VU6080824” (ACS Medicinal Chemistry Letters, 2025)
“And” between values parts separate entries of the source, which are not always exact repeats. Equal entries are not always repeated.

Experiments:
[1] = biological target: T1, human Kir2.1 (Homo sapiens, UniProt P63252); test: Kir2.1 manual patch clamp (MPC) assay; assay type: cell-based; conditions: for Emax / Manual patch clamp Emax: % inhibition of Ba2+-sensitive current at highest tested concentration (3–30 μM); for IC50: pH 7.4, -120 mV, normalized to 2 mM Ba2+ block, top concentration 10 μM (ML133 30 μM, 5t 3 μM)
T1 construct: expressed in transfected cells
T1 sequence (P63252 1-427): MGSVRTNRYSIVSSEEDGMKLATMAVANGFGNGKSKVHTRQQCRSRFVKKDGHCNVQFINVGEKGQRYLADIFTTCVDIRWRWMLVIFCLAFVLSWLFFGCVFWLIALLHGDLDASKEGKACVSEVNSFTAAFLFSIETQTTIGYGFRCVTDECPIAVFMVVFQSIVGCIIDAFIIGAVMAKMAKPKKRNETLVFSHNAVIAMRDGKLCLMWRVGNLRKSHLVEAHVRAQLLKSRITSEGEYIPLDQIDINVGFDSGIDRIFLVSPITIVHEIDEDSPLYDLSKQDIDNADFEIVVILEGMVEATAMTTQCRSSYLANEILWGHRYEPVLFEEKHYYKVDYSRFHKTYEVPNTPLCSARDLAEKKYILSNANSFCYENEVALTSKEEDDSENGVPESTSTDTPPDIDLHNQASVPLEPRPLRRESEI
Method: Manual Patch Claim Assay Experimental Conditions
Whole-cell patch-clamp electrophysiology was used to record K ir2.1 currents from a stably transfected monoclonal T-Rex-HEK-293 cell line with a tetracycline-inducible promoter expressing human Kir2.1, as described previously1 cultured in a 5% CO2 incubator at 37°C. Kir2.1 expression was induced by overnight treatment with 1 µg/mL tetracycline. Cells were dissociated using 0.25% Trypsin-EDTA and seeded onto 12 mm circular coverslips (Electron Microscopy Sciences, PA, USA) for same-day whole-cell patch-clamp recordings. Kir2.1 currents were recorded at room temperature using an AxoPatch 200B amplifier with Clampex 10.7 software (Molecular Devices, USA). The voltage-clamp protocol consisted of a 1-s step to -120 mV from a -80 mV holding potential, followed by a 2-s ramp to +40 mV, repeated every 10 s. Data were sampled at 5 kHz and filtered at 1 kHz. Patch pipettes, pulled from 1.5 mm OD thin-walled capillaries (Warner Instruments, MA, USA) using a Sutter P-1000 puller (Sutter Instrument, CA, USA), had resistances of 2–3 MΩ when filled with intracellular solution containing (mM): 135 KCl, 10 HEPES, 1 EGTA, 2 MgCl2, 2 Na2ATP (pH 7.35, adjusted with KOH). The extracellular solution contained (mM): 135 NaCl, 5 KCl, 2 CaCl2, 1 MgCl2, 5 Glucose, 10 HEPES, 10 Sucrose (pH 7.35, adjusted with NaOH). After establishing stable baseline Kir2.1 currents, cells were perfused with compounds at concentrations of 0.03–30 µM until response saturation (within minutes).
Recordings concluded with a 2 mM Ba2+ solution to isolate Ba2+-sensitive currents, with compound responses expressed as fractions of this current. Current amplitudes at the -120 mV step were analyzed using Clampfit 11.2 (Molecular Devices). IC50 values were calculated by fitting the Hill equation to concentration-response curves (CRCs) using variable -slope nonlinear regression in GraphPad Prism 10.4 (GraphPad Software).
MPC experiments for Kir2.2 and Kir2.3 were conducted in an analogous fashion.1

[2] = biological target: T1, human Kir2.1; test: Kir2.1 thallium flux assay; assay type: cell-based; conditions: for Emax / Thallium Flux Efficacy (% Inhibition): efficacy from 4PL fit, relative to ML133; for Emax: read-out: Thallium Flux Efficacy (% Inhibition)
Method: Thallium Flux Assay Experimental Conditions
The Tl+ flux assays were conducted as previously described with modifications optimized for Kir2.1 cell line as described below.1
Briefly, stable T-REx-HEK-293 cells expressing human K ir2.1 were cultured in DMEM growth medium (Catalog #11965-092, Gibco, Billings, MT) containing 10% heat-inactivated FBS (Catalog #16140, Gibco), 100 U/mL PenStrep, 5 μg/mL Blasticidin S, and 250 μg/mL Hygromycin.
The day prior to the experiment, cells at ~90% confluency were resuspended in plating media, which consisted of the same components as the growth media, except that heat-inactivated FBS was replaced with dialyzed FBS (Catalog #26400, Gibco). Tetracycline was added to the plating media to achieve a final concentration of 1 μg/ml to induce hKir2.1 expression. Cells were then counted and plated at 15,000 cells/well in black-walled, amine- or PDL- coated, 384-well plates at 20 μl/well (Corning, Corning, NY). On the day of experiment, the media was removed from the cell plate and replaced with 20 μl/well of Tl+-sensitive dye loading solution containing 2.5 μg/ml Thallos-AM (Catalog #11000-050, ION Biosciences, San Marcos, TX) in assay buffer using a Multidrop Combi dispenser (Thermo Fisher Scientific, Walkham, MA). Cell plates loaded with dye solution were incubated for 1 hour at room temperature. Following incubation, the cell plate was washed with HBSS assay buffer containing 20 mM HEPES using a BioTek ELx 405 TS plate washer (Agilent, Santa Clara, CA), leaving 20 μl of assay buffer in each well. The cell plate was then transferred to a Panoptic kinetic imaging plate reader (WaveFront Biosciences, Franklin, TN) for imaging at 1 Hz, 482/35 nm excitation and 536/40 nm emission for 10 seconds. Following this, 20 μl/well of HBSS assay buffer containing test compounds at 2-fold over their final concentrations were added and imaging continued for another eight minutes, after which 10 μl/well of chloride-free Tl+ stimulus solution was added (Catalog #11000-050, ION Biosciences). The final Tl2SO4 concentration in cell plate post-Tl+ stimulus solution addition was 0.25 mM. Images were collected for an additional two minutes. A ten-point concentration series from 30 μM to 2 nM with a 1:3 dilution factor was generated using an Echo liquid handler 650 (Labcyte, San Jose, CA). Final DMSO concentration, 0.3% (v/v) in the assay was constant across all compound concentrations.
The initial slopes of the Tl+-induced fluorescence changes were fit to a four-parameter logistic equation using our in-house software Waveguide to determine potency and efficacy values. […]
Bauer, J. A.; Days, E. L.; Lindsley, C. […]

[3] = T-REx-HEK-293 cells expressing human Kir2.1, 4PL fit, top concentration 30 μM, read-out: Thallium Flux Potency IC50

Row | SMILES | Emax ([1]; pH 7.4) | IC50 [1] | Thallium flux potency relative to ML133 [2] | IC50 [2, 3] | Emax [2] | Fold more potent than ML133 in MPC ([1]; pH 7.4) | MPC potency relative to ML133 ([1]; pH 7.4) | Manual patch clamp Emax ([1]; pH 7.4) | Thallium Flux Efficacy (% Inhibition) [2] | IC50 ([2]; mean ± SEM over 9 experimental plates in triplicate, read-out: Thallium flux pIC50 (converted))
1 | COc1ccc(CNCc2ccc3c(c2)OC(F)(F)O3)cc1 [Compound 5h] | 92% | 3.03 µM | equipotent | 11.2 µM | 99% | – | – | – | – | –
2 | COc1ccc(CNCc2cccc(-c3ccccc3)c2)cc1 [Compound 5j] | 100% | 0.39 µM | – | 12.8 µM | 106% | 3–5 fold | – | – | – | –
3 | COc1ccc(CNCc2ccc(-c3ccccc3)cc2)cc1 [Compound 5k] | 99% | 1.39 µM | – | 8.2 µM | 101% | – | equipotent | – | – | –
4 | COc1ccc(CNCc2ccc(-c3cccc(F)c3)cc2)cc1 [Compound 5p] | 98% | 0.3 µM | – | 8.1 µM | 99% | 3–5 fold | – | – | – | –
5 | COc1ccc(CNCc2ccc(-c3cccc(OC)c3)cc2)cc1 [Compound 5s, 1-(3′-Methoxy-[1,1’-biphenyl]-4-yl)-N-(4-methoxybenzyl)methanamine] | 100% | 0.35 µM | – | 5.9 µM | 101% | 3–5 fold | – | – | – | –
6 | COc1ccc(CNCc2ccc(-c3cccc(C#N)c3)cc2)cc1 [Compound 5t] | 98% | 0.48 µM | – | 4.9 µM | 100% | 3–5 fold | – | – | – | –
7 | [2H]C([2H])([2H])Oc1ccc(CNCc2cccc3ccccc23)cc1 [Compound 7] | 82% | 3.94 µM | equipotent | 11.1 µM | 102% | – | – | – | – | –
8 | [2H]C([2H])([2H])Oc1ccc(CNCc2ccc(-c3cccc(OC)c3)cc2)cc1 [Compound 9] | – | – | – | – | – | – | – | 99% | 100% | –
9 | [2H]C([2H])([2H])Oc1cccc(-c2ccc(CNCc3ccc(OC)cc3)cc2)c1 [Compound 11] | – | – | – | – | – | – | – | 99% | 100% | –
10 | [2H]C([2H])([2H])Oc1ccc(CNCc2ccc(-c3cccc(OC([2H])([2H])[2H])c3)cc2)cc1 [Compound 13] | – | – | – | – | – | – | – | 99% | 100% | –
11 | COc1ccc(CNCc2cccc3ccccc23)cc1 [ML133, N-(4-methoxybenzyl)-1-(naphthalen-1-yl)methanamine, reference compound] | 99% | 1.5 µM and 1.51 µM | – | 10.1 µM | 101% | – | – | – | – | 10.5 µM
